Test results as given in US20150218212A1, “FLUORINATED EPOXYKETONE-BASED TETRAPEPTIDE COMPOUNDS AND USES THEREOF AS PROTEASOME INHIBITORS” (FLUORINOV PHARMA INC., priority 2012, published 2015).

Legend:
DU-145 = experiment: NCI screening panel, DU-145 (Prostate Cancer); assay type: cell-based, human
Method: (§1) Representative compounds of Formula I were screened using the National Cancer Institute (NCI) screening panel, which consists of a panel of human tumor cell lines, representing leukemia, melanoma, and cancers of the lung, colon, ovary, breast, prostate and renal system.
(§2) After 24 h, two plates of each cell line are fixed in situ with TCA, to represent a measurement of the cell population for each cell line at the time of drug addition (Tz). Experimental drugs are solubilised in dimethyl sulfoxide at 400-fold the desired final maximum test concentration and stored frozen prior to use. At the time of drug addition, an aliquot of frozen concentrate is thawed and diluted to twice the desired final maximum test concentration with complete medium containing 50 μg/mL gentamicin. Additional four, 10-fold or ½ log serial dilutions are made to provide a total of five drug concentrations plus control. Aliquots of 100 μl of these different drug dilutions are added to the appropriate microtiter wells already containing 100 μl of medium, resulting in the required final drug concentrations.
(§3) Following drug addition, the plates are incubated for an additional 48 h at 37° C., 5% CO2, 95% air, and 100% relative humidity. For adherent cells, the assay is terminated by the addition of cold TCA (trichloroacetic acid). Cells are fixed in situ by the gentle addition of 50 μl of cold 50% (w/v) TCA (final concentration, 10% TCA) and incubated for 60 minutes at 4° C. The supernatant is discarded, and the plates are washed five times with tap water and air dried. Sulforhodamine B (SRB) solution (100 μl) at 0.4% (w/v) in 1% acetic acid is added to each well, and plates are incubated for 10 minutes at room temperature. After staining, unbound dye is removed by washing five times with 1% acetic acid and the plates are air dried. Bound stain is subsequently solubilised with 10 mM trizma base, and the absorbance is read on an automated plate reader at a wavelength of 515 nm. For suspension cells, the methodology is the same except that the assay is terminated by fixing settled cells at the bottom of the wells by gently adding 50 μl of 80% TCA (final concentration, 16% TCA). Using the seven absorbance measurements [time zero, (Tz), control growth, (C), and test growth in the presence of drug at the five concentration levels (Ti)], the percentage growth is calculated at each of the drug concentrations levels. Percentage growth inhibition is calculated as: [(Ti−Tz)/(C−Tz)]×100 for concentrations for which Ti>/=Tz and [(Ti−Tz)/Tz]×100 for concentrations for which Ti<Tz.
(§4) Three dose response parameters are calculated for each experimental agent. Growth inhibition of 50% (GI50) is calculated from [(Ti−Tz)/(C−Tz)]×100=50, which is the drug concentration resulting in a 50% reduction in the net protein increase (as measured by SRB staining) in control cells during the drug incubation. The drug concentration resulting in total growth inhibition (TGI) is calculated from Ti=Tz. The LC50 (concentration of drug resulting in a 50% reduction in the measured protein at the end of the drug treatment as compared to that at the beginning) indicating a net loss of cells following treatment is calculated from [(Ti−Tz)/Tz]×100=−50. Values are calculated for each of these three parameters if the level of activity is reached. However, if the effect is not reached or is exceeded, the value for that parameter is expressed as greater or less than the maximum or minimum concentration tested.

NCI-H460 = experiment: NCI screening panel, NCI-H460 (Non-Small Cell Lung Cancer); assay type: cell-based, human
Method: as §1, §2, §3, §4

SF-268 = experiment: NCI screening panel, SF-268 (CNS Cancer); assay type: cell-based, human
Method: as §1, §2, §3, §4

UACC-257 = experiment: NCI screening panel, UACC-257 (Melanoma); assay type: cell-based, human
Method: as §1, §2, §3, §4

SK-MEL-5 = experiment: NCI screening panel, SK-MEL-5 (Melanoma); assay type: cell-based, human
Method: as §1, §2, §3, §4

HOP-62 = experiment: NCI screening panel, HOP-62 (Non-Small Cell Lung Cancer); assay type: cell-based, human
Method: as §1, §2, §3, §4

IGROV1 = experiment: NCI screening panel, IGROV1 (Ovarian Cancer); assay type: cell-based, human
Method: as §1, §2, §3, §4

MDA-MB-468 = experiment: NCI screening panel, MDA-MB-468 (Breast Cancer); assay type: cell-based, human
Method: as §1, §2, §3, §4

KMS-11 = experiment: Cell viability (MTS) assay, KMS-11; assay type: cell-based; details: Homo sapiens; KMS-11, MTS, 72 hours, mean ± standard deviation
Method: Human multiple myeloma cell lines 8226, H929, JJN3, KMH11, KMS11, KMS18, LP1, MM1S, OPM2 and U266 were grown in Iscove modified Dulbecco's medium (IMDM). Human leukemia cell lines K562, OCI-AML2 and U937 were cultured in RPMI-1640 medium. Primary peripheral blood mononuclear cells were isolated from multiple myeloma patients by Ficoll density gradient centrifugation and bone marrow aspirates were obtained from multiple myeloma patients at the Princess Margaret Cancer Centre of the University Health Network (UHN; Toronto, ON, Canada). Primary cells were cultured in IMDM. The collection and use of human tissue for this study was approved by the UHN institutional ethics review board. All cell culture media were obtained from the Ontario Cancer Institute Tissue Culture Media Facility (Toronto, ON, Canada) and were supplemented with 10% fetal calf serum, […] (Hyclone, Logan, Utah). All cells were grown in a humidified incubator at 37° C. with 5% CO2.
Cellular viability was primarily assessed by 3-(4,5-dimethylthiazol-2-yl)-5-(3-carboxymethoxyphenyl)-2-(4-sulfophenyl)-2H-tetrazolium (MTS) assay according to the manufacturer's instructions (Promega; Madison, Wis.). Cells were first seeded at a density of 10,000 cells per well in tissue culture-treated 96-well plates. Two hours after seeding, cells were treated with compounds for 72 hours at concentrations as indicated. As a control, cells were treated with DMSO alone in every assay plate. Following treatment and the MTS assay, cell viability was independently confirmed by reading the optical density (O.D.) at 490 nm and by exclusion of trypan blue stain (Invitrogen; Burlington, ON, Canada). The viability of primary mononuclear cells was determined by staining with Annexin V.
Table 8 summarizes the data of representative compounds of Formula I for cell viability and CT-L proteasome activity with OCI-AML-2 and KMS-11 cell lines.

CC(C)C[C@H](NC(=O)[C@H](COC(F)F)NC(=O)CN1CCOCC1)C(=O)N[C@@H](COC(F)F)C(=O)N[C@@H](Cc1ccccc1)C(=O)[C@@]1(C)CO1 [Example 4, (2S)-N-[(1S)-2-[[(1S)-1-benzyl-2-[(2R)-2-methyloxiran-2-yl]-2-oxo-ethyl]amino]-1-(difluoromethoxymethyl)-2-oxo-ethyl]-2-[[(2S)-3-(difluoromethoxy)-2-[(2-mor-pholinoacetyl)amino]propanoyl]amino]-4 methyl-pentanamide] was tested, and the Log10GI50 (DU-145) was −7.19, the Log10LC50 (DU-145) was >−4.00 and the Log10TGI50 (DU-145) was −4.91. The Log10GI50 (NCI-H460) was −6.84, the Log10LC50 (NCI-H460) was −4.04 and the Log10TGI50 (NCI-H460) was −6.19. For the same compound, the Log10GI50 (SF-268) was −7.58, the Log10LC50 (SF-268) was >−4.00 and the Log10TGI50 (SF-268) was −6.82. It also gave a Log10GI50 (UACC-257) of −6.71, a Log10LC50 (UACC-257) of −4.14 and a Log10TGI50 (UACC-257) of −6.11. The Log10GI50 (SK-MEL-5) was −7.33, the Log10LC50 (SK-MEL-5) was −5.71 and the Log10TGI50 (SK-MEL-5) was −6.60. For the same compound, the Log10GI50 (HOP-62) was −7.65, the Log10LC50 (HOP-62) was >−4.00 and the Log10TGI50 (HOP-62) was −6.98. For the same compound, the Log10GI50 (IGROV1) was −7.33, the Log10LC50 (IGROV1) was >−4.00 and the Log10TGI50 (IGROV1) was −5.57. The Log10GI50 (MDA-MB-468) was −7.35, the Log10LC50 (MDA-MB-468) was >−4.00 and the Log10TGI50 (MDA-MB-468) was −6.37. It also gave an IC50 (KMS-11) of 33.9 ± 2.11 nM.

In the case of CC(C)C[C@H](NC(=O)[C@H](COC(F)F)NC(=O)[C@H](COC(F)F)NC(=O)[C@H](CCc1ccccc1)NC(=O)CN1CCOCC1)C(=O)[C@@]1(C)CO1 [Example 7, (2S)-N-[(1S)-1-(difluoromethoxymethyl)-2-[[(1S)-1-(difluoromethoxymethyl)-2-[[(1S)-3-methyl-1-[(2R)-2-methyloxirane-2-carbo-nyl]butyl]amino]-2-oxo-ethyl]amino]-2-oxo-ethyl]-2-[(2-morpholinoacetyl)amino]-4-phenyl-butanamide], the Log10GI50 (DU-145) is reported as −7.42, the Log10LC50 (DU-145) is reported as >−4.00 and the Log10TGI50 (DU-145) is reported as −4.75. For the same compound, the Log10GI50 (NCI-H460) was −7.28, the Log10LC50 (NCI-H460) was >−4.00 and the Log10TGI50 (NCI-H460) was −6.50. The Log10GI50 (SF-268) was −7.73, the Log10LC50 (SF-268) was >−4.00 and the Log10TGI50 (SF-268) was −7.21. For the same compound, the Log10GI50 (UACC-257) was −6.80, the Log10LC50 (UACC-257) was >−4.00 and the Log10TGI50 (UACC-257) was −6.03. The Log10GI50 (SK-MEL-5) was −7.55, the Log10LC50 (SK-MEL-5) was −6.35 and the Log10TGI50 (SK-MEL-5) was −6.99. The Log10GI50 (HOP-62) was −7.63, the Log10LC50 (HOP-62) was >−4.00 and the Log10TGI50 (HOP-62) was −7.00. For the same compound, the Log10GI50 (IGROV1) was −7.49, the Log10LC50 (IGROV1) was >−4.00 and the Log10TGI50 (IGROV1) was −5.55. It also gave a Log10GI50 (MDA-MB-468) of −7.58, a Log10LC50 (MDA-MB-468) of −4.78 and a Log10TGI50 (MDA-MB-468) of −7.09. The IC50 (KMS-11) was 19.8 ± 0.532 nM.

With CC(C)C[C@H](NC(=O)[C@H](Cc1ccccc1)NC(=O)[C@H](COC(F)F)NC(=O)[C@H](COC(F)F)NC(=O)CN1CCOCC1)C(=O)[C@@]1(C)CO1 [Example 11, (2S)-2-[[(2S)-3-(difluoromethoxy)-2-[[(2S)-3-(difluoromethoxy)-2-[(2-morpholinoacetyl)-amino]propanoyl]amino]propanoyl]amino]-N-[(1S)-3-methyl-1-[(2R)-2-methyloxirane-2-carbonyl]butyl]-3-phenyl-propanamide] the Log10GI50 (DU-145) was −7.31, the Log10LC50 (DU-145) was >−4.00 and the Log10TGI50 (DU-145) was −5.94. It also gave a Log10GI50 (NCI-H460) of −7.29, a Log10LC50 (NCI-H460) of −4.85 and a Log10TGI50 (NCI-H460) of −6.51. It also gave a Log10GI50 (SF-268) of −7.66, a Log10LC50 (SF-268) of −4.07 and a Log10TGI50 (SF-268) of −7.22. The Log10GI50 (UACC-257) was −6.79, the Log10LC50 (UACC-257) was >−4.00 and the Log10TGI50 (UACC-257) was −6.14. For the same compound, the Log10GI50 (SK-MEL-5) was −7.45, the Log10LC50 (SK-MEL-5) was −6.23 and the Log10TGI50 (SK-MEL-5) was −6.83. For the same compound, the Log10GI50 (HOP-62) was −7.56, the Log10LC50 (HOP-62) was >−4.00 and the Log10TGI50 (HOP-62) was −4.94. For the same compound, the Log10GI50 (IGROV1) was −7.38, the Log10LC50 (IGROV1) was >−4.00 and the Log10TGI50 (IGROV1) was −4.36. For the same compound, the Log10GI50 (MDA-MB-468) was −7.62, the Log10LC50 (MDA-MB-468) was −4.67 and the Log10TGI50 (MDA-MB-468) was −7.06. The IC50 (KMS-11) was 24.3 ± 0.568 nM.

With CC(C)C[C@H](NC(=O)[C@H](COC(F)F)NC(=O)[C@H](COC(F)F)NC(=O)[C@H](COC(F)F)NC(=O)CN1CCOCC1)C(=O)[C@@]1(C)CO1 [Example 17, (2S)-3-(difluoromethoxy)-N-[(1S)-1-(difluoromethoxymethyl)-2-[[(1S)-1-(difluoro-methoxymethyl)-2-[[(1S)-3-methyl-1-[(2R)-2-methyloxirane-2-carbonyl]butyl]amino]-2-oxo-ethyl]amino]-2-oxo-ethyl]-2-[(2-mor-pholinoacetyl)amino]-propanamide] the Log10GI50 (DU-145) was −7.07, the Log10LC50 (DU-145) was >−4.00 and the Log10TGI50 (DU-145) was −4.84. The Log10GI50 (NCI-H460) was −6.50, the Log10LC50 (NCI-H460) was −4.60 and the Log10TGI50 (NCI-H460) was −5.88. For the same compound, the Log10GI50 (SF-268) was −7.15, the Log10LC50 (SF-268) was −4.87 and the Log10TGI50 (SF-268) was −6.47. For the same compound, the Log10GI50 (UACC-257) was −6.45, the Log10LC50 (UACC-257) was >−4.00 and the Log10TGI50 (UACC-257) was −5.56. It also gave a Log10GI50 (SK-MEL-5) of −7.10, a Log10LC50 (SK-MEL-5) of −6.01 and a Log10TGI50 (SK-MEL-5) of −6.53. The Log10GI50 (HOP-62) was −6.82, the Log10LC50 (HOP-62) was >−4.00 and the Log10TGI50 (HOP-62) was >−4.00. For the same compound, the Log10GI50 (IGROV1) was −6.87, the Log10LC50 (IGROV1) was >−4.00 and the Log10TGI50 (IGROV1) was −5.82. For the same compound, the Log10GI50 (MDA-MB-468) was −7.04, the Log10LC50 (MDA-MB-468) was >−4.00 and the Log10TGI50 (MDA-MB-468) was −6.17. The IC50 (KMS-11) was 166 ± 13.4 nM.
